Laboratory results: patent publication US9695155B2, “Herbicidal substituted pyrimidinyloxy benzene compounds” (E. I. DU PONT DE NEMOURS AND COMPANY, priority 2013, dated 2017)

How the values were obtained:
surinam grass = assay: Test C postemergence; type: in vivo, Brachiaria decumbens; settings: for Plant response rating (0 to 100), Surinam Grass: postemergence; for Plant response rating, Surinam Grass: Postemergence, scale 0 to 100 (0 no effect, 100 complete control)
From the text: (§1) Seeds of plant species selected from blackgrass (Alopecurus myosuroides), Italian ryegrass (Lolium multiflorum), wheat, winter (winter wheat, Triticum aestivum), galium (catchweed bedstraw, Galium aparine), corn (Zea mays), large (Lg) crabgrass (Digitaria sanguinalis), giant foxtail (Setaria faberii), johnsongrass (Sorghum halepense), lambsquarters (Chenopodium album), morningglory (Ipomoea coccinea), yellow nutsedge (Cyperus esculentus), pigweed (Amaranthus retroflexus), ragweed (common ragweed, Ambrosia elatior), soybean (Glycine max), barnyardgrass (Echinochloa crus-galli), oilseed rape (Brassica napus), waterhemp (common waterhemp, Amaranthus rudis), kochia (Kochia scoparia), wild oat (Avena fatua), surinam grass (Brachiaria decumbens), foxtail, green (green foxtail, Setaria viridis), goosegrass (Eleusine indica), bromegrass, downy (downy bromegrass, Bromus tectorum), nightshade (eastern black nightshade, Solanum ptycanthum), cocklebur (common cocklebur, Xanthium strumarium), cupgrass, woolly (woolly cupgrass, Eriochloa villosa), bermudagrass (Cynodon dactylon), sunflower, (common oilseed sunflower, Helianthus annuus), Russian thistle (Salsola kali), and velvetleaf (Abutilon theophrasti) were planted into a blend of loam soil and sand and treated preemergence with test chemicals formulated in a non-phytotoxic solvent mixture which included a surfactant.
(§2) At the same time, plants selected from these crop and weed species and also barley, winter (winter barley, Hordeum vulgare), windgrass (Apera spica-venti), chickweed (common chickweed, Stellaria media), deadnettle (henbit deadnettle, Lamium amplexicaule), and canarygrass (littleseed canarygrass, Phalaris minor) were planted in pots containing Redi-Earth® planting medium (Scotts Company, 14111 Scottslawn Road, Marysville, Ohio 43041) comprising spaghnum peat moss, vermiculite, wetting agent and starter nutrients and treated with postemergence applications of test chemicals formulated in the same manner. Plants ranged in height from 2 to 18 cm (1- to 4-leaf stage) for postemergence treatments. Treated plants and controls were maintained in a greenhouse for 13 to 15 days, after which time all species were compared to controls and visually evaluated. Plant response ratings, summarized in Table C, are based on a scale of 0 to 100 where 0 is no effect and 100 is complete control. A dash (-) response means no test result.

wild oat = assay: Test C preemergence; type: in vivo, Avena fatua; settings: for Oat, Wild plant response rating: preemergence, scale 0 (no effect) to 100 (complete control); for Plant response rating, Oat, Wild: Preemergence, 31 g ai/ha, scale 0 to 100, 0 no effect, 100 complete control
From the text: as §1, §2

foxtail, green = assay: Test C preemergence; type: in vivo, Setaria viridis; settings: for Foxtail, Green plant response rating: preemergence, scale 0 (no effect) to 100 (complete control); for Plant response rating, Foxtail, Green: Preemergence, 31 g ai/ha, scale 0 to 100, 0 no effect, 100 complete control
From the text: as §1, §2

goosegrass = assay: Test C preemergence; type: in vivo, Eleusine indica; settings: for Goosegrass plant response rating: preemergence, scale 0 (no effect) to 100 (complete control); for Plant response rating, Goosegrass: Preemergence, 31 g ai/ha, scale 0 to 100, 0 no effect, 100 complete control
From the text: as §1, §2

bromegrass, downy = assay: Test C preemergence; type: in vivo, Bromus tectorum; settings: for Bromegrass, Downy plant response rating: preemergence, scale 0 (no effect) to 100 (complete control); for Plant response rating, Bromegrass, Downy: Preemergence, 31 g ai/ha, scale 0 to 100, 0 no effect, 100 complete control
From the text: as §1, §2

bermudagrass = assay: Test C preemergence; type: in vivo, Cynodon dactylon; settings: for Bermudagrass plant response rating: preemergence, scale 0 (no effect) to 100 (complete control); for Plant response rating, Bermudagrass: Preemergence, 31 g ai/ha, scale 0 to 100, 0 no effect, 100 complete control
From the text: as §1, §2

sunflower = assay: Test C preemergence; type: in vivo, Helianthus annuus; settings: for Sunflower plant response rating: preemergence, scale 0 (no effect) to 100 (complete control); for Plant response rating, Sunflower: Preemergence, 31 g ai/ha, scale 0 to 100, 0 no effect, 100 complete control
From the text: as §1, §2

[1] = test system: waterhemp_RES1 (ALS & Triazine resistant common waterhemp); assay: Test E postemergence; type: in vivo, Amaranthus rudis
Outline: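 Compound in a non-phytotoxic solvent mixture with surfactant was applied preemergence to seeds in silt loam soil, or postemergence to plants 2 to 18 cm tall grown in peat-based potting medium. Plants were kept in a greenhouse for 14 to 21 days, then rated visually against untreated controls on a 0 (no effect) to 100 (complete control) scale.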

smartweed = assay: Test E postemergence; type: in vivo, ladysthumb smartweed
From the text: Seeds of plant species selected from corn (Zea mays), soybean (Glycine max), velvetleaf (Abutilon theophrasti), lambsquarters (Chenopodium album), wild poinsettia (Euphorbia heterophylla), palmer pigweed (Amaranthus palmeri), waterhemp (common waterhemp, Amaranthus rudis), surinam grass (Brachiaria decumbens), large (Lg) crabgrass (Digitaria sanguinalis), Brazilian crabgrass (Digitaria horizontalis), fall panicum (Panicum dichotomiflorum), giant foxtail (Setaria faberii), green foxtail (Setaria viridis), goosegrass (Eleusine indica), johnsongrass (Sorghum halepense), ragweed (common ragweed, Ambrosia elatior), barnyardgrass (Echinochloa crus-galli), sandbur (southern sandbur, Cenchrus echinatus), arrowleaf sida (Sida rhombifolia), Italian ryegrass (Lolium multiflorum), dayflower (Virginia (VA) dayflower, Commelina virginica), field bindweed (Convolvulus arvensis), morningglory (Ipomoea coccinea), nightshade (eastern black nightshade, Solanum ptycanthum), kochia (Kochia scoparia), yellow nutsedge (Cyperus esculentus), cocklebur (common cocklebur, Xanthium strumarium), smartweed (ladysthumb smartweed, and hairy beggarticks (Bidens pilosa), were planted into a silt loam soil and treated preemergence with test chemicals formulated in a non-phytotoxic solvent mixture which included a surfactant.
At the same time, plants from these crop and weed species and also horseweed (Canada horseweed, Conyza canadensis), waterhemp_RES1, (ALS & Triazine resistant common waterhemp, Amaranthus rudis), and waterhemp_RES2, (ALS & HPPD resistant common waterhemp, Amaranthus rudis) were planted in pots containing Redi-Earth® planting medium (Scotts Company, 14111 Scottslawn Road, Marysville, Ohio 43041) comprising spaghnum peat moss, vermiculite, wetting agent and starter nutrients were treated with postemergence applications of test chemicals formulated in the same manner. Plants ranged in height from 2 to 18 cm for postemergence treatments (1- to 4-leaf stage). Treated plants and controls were maintained in a greenhouse for 14 to 21 days, after which time all species were compared to controls and visually evaluated. Plant response ratings, summarized in Table E, are based on a scale of 0 to 100 where 0 is no effect and 100 is complete control. A dash (-) response means no test result.

[2] = Postemergence, 31 g ai/ha, scale 0 to 100
[3] = Postemergence, 62 g ai/ha, scale 0 to 100
[4] = Postemergence, 125 g ai/ha, scale 0 to 100
[5] = postemergence, 16 g ai/ha, scale 0 to 100, 0 no effect, 100 complete control
[6] = postemergence, 8 g ai/ha, scale 0 to 100, 0 no effect, 100 complete control

Row | SMILES | Plant response rating (0 to 100), Surinam Grass (surinam grass; 125 g ai/ha) | Plant response rating, Surinam Grass (surinam grass; 31 g ai/ha, 13 to 15 days) | Plant response rating, Surinam Grass (surinam grass; 62 g ai/ha) | Oat, Wild plant response rating (wild oat; 62 g ai/ha) | Oat, Wild plant response rating (wild oat; 125 g ai/ha) | Oat, Wild plant response rating (wild oat; 250 g ai/ha) | Plant response rating, Oat, Wild (wild oat) | Foxtail, Green plant response rating (foxtail, green; 62 g ai/ha) | Foxtail, Green plant response rating (foxtail, green; 125 g ai/ha) | Foxtail, Green plant response rating (foxtail, green; 250 g ai/ha) | Plant response rating, Foxtail, Green (foxtail, green) | Goosegrass plant response rating (goosegrass; 62 g ai/ha) | Goosegrass plant response rating (goosegrass; 125 g ai/ha) | Goosegrass plant response rating (goosegrass; 250 g ai/ha) | Plant response rating, Goosegrass (goosegrass) | Bromegrass, Downy plant response rating (bromegrass, downy; 62 g ai/ha) | Bromegrass, Downy plant response rating (bromegrass, downy; 125 g ai/ha) | Bromegrass, Downy plant response rating (bromegrass, downy; 250 g ai/ha) | Plant response rating, Bromegrass, Downy (bromegrass, downy) | Bermudagrass plant response rating (bermudagrass; 62 g ai/ha) | also measured
1 | Fc1cnc(Oc2ccccc2-n2cc(Br)cn2)nc1 [Compound 10, 2-[2-(4-bromo-1H-pyrazol-1-yl)phenoxy]-5-fluoropyrimidine] | 15 | 0 | 10 |  |  |  |  |  |  |  |  |  |  |  |  |  |  |  |  |  | Plant response rating (0 to 100), Surinam Grass (surinam grass; 250 g ai/ha): 15
2 | FC(F)(F)c1cnn(-c2ccccc2Oc2ncc(Br)cn2)c1 [Compound 18, 5-bromo-2-[2-[4-(trifluoromethyl)-1H-pyrazol-1-yl]phenoxy]pyrimidine] |  |  |  | 50 | 80 | 85 | 0 | 90 | 90 | 90 | 85 | 85 | 95 | 100 | 75 | 10 | 50 | 95 | 0 | 98 | Bermudagrass plant response rating (bermudagrass; 125 g ai/ha): 98; Bermudagrass plant response rating (bermudagrass; 250 g ai/ha): 100; Plant response rating, Bermudagrass (bermudagrass): 95; Sunflower plant response rating (sunflower; 62 g ai/ha): 0; Sunflower plant response rating (sunflower; 125 g ai/ha): 0; Sunflower plant response rating (sunflower; 250 g ai/ha): 40; Plant response rating, Sunflower (sunflower): 0
3 | FC(F)(F)c1cnn(-c2ccccc2Oc2ncc(Cl)cn2)c1 [Compound 16] | 40 | 10 | 15 | 90 | 90 | 90 | 50 | 90 | 90 | 90 | 90 | 98 | 100 | 100 | 75 | 60 | 90 | 95 | 30 | 98 | Bermudagrass plant response rating (bermudagrass; 125 g ai/ha): 98; Bermudagrass plant response rating (bermudagrass; 250 g ai/ha): 98; Plant response rating, Bermudagrass (bermudagrass): 95; Sunflower plant response rating (sunflower; 62 g ai/ha): 0; Sunflower plant response rating (sunflower; 125 g ai/ha): 0; Sunflower plant response rating (sunflower; 250 g ai/ha): 0; Plant response rating, Sunflower (sunflower): 0; Plant response rating (0 to 100), Surinam Grass (surinam grass; 250 g ai/ha): 40; Plant response rating, Waterhemp_RES1 [1, 2]: 50; Plant response rating, Waterhemp_RES1 [1, 3]: 60; Plant response rating, Waterhemp_RES1 [1, 4]: 75; Plant response rating, Waterhemp_RES1 ([1]; Postemergence, 250 g ai/ha, scale 0 to 100): 95; Plant response rating, Waterhemp_RES1 [1, 5]: 50
4 | Clc1cnc(Oc2ccccc2-n2cc(Br)cn2)nc1 [Compound 7, 2-[2-(4-bromo-1H-pyrazol-1-yl)phenoxy]-5-chloropyrimidine] | 30 | 15 | 20 | 5 | 50 | 80 | 0 | 90 | 90 | 95 | 50 | 85 | 95 | 100 | 65 | 5 | 45 | 75 | 0 | 100 | Bermudagrass plant response rating (bermudagrass; 125 g ai/ha): 100; Bermudagrass plant response rating (bermudagrass; 250 g ai/ha): 100; Plant response rating, Bermudagrass (bermudagrass): 85; Sunflower plant response rating (sunflower; 62 g ai/ha): 10; Sunflower plant response rating (sunflower; 125 g ai/ha): 10; Sunflower plant response rating (sunflower; 250 g ai/ha): 10; Plant response rating, Sunflower (sunflower): 0; Plant response rating, Waterhemp_RES1 [1, 2]: 80; Plant response rating, Waterhemp_RES1 [1, 3]: 95; Plant response rating, Waterhemp_RES1 [1, 4]: 90; Plant response rating, Waterhemp_RES1 [1, 6]: 65; Plant response rating, Waterhemp_RES1 [1, 5]: 70; Plant response rating, Smartweed (smartweed; [2]): 40; Plant response rating, Smartweed (smartweed; [3]): 70; Plant response rating, Smartweed (smartweed; [4]): 100; Plant response rating, Smartweed (smartweed; [6]): 15; Plant response rating, Smartweed (smartweed; [5]): 30
